In brackets after ≈: the same amount, converted by molar mass. Activity calls are given as the source filed them. No cut-off for these calls is given here.
Assays:
[1] = AUMC (0 to infinity) in Kunming mouse at 10 mg/kg, iv measured upto 24 hrs by LC-MS analysis; format: ADME, organism-based; conditions: in vivo
[2] = Oral bioavailability in Kunming mouse at 10 mg/kg measured upto 24 hrs by LC-MS analysis; format: ADME, organism-based; conditions: in vivo
[3] = test system: Calf thymus DNA; test: Induction of calf thymus DNA cleavage at 0.05 mmol/L incubated for 6 hrs in presence of Cu2+ by agarose gel electrophoresis method; format: nucleic-acid assay; conditions: Bos taurus
[4] = AUC (0 to t) in Kunming mouse at 10 mg/kg, iv measured upto 24 hrs by LC-MS analysis; format: ADME, organism-based; set-up: time < 24 hrs, dose 10 mg/kg, route iv; conditions: in vivo
[5] = Cytotoxicity against human L02 cells assessed as cell viability at effective concentration measured after 24 hrs by MTT assay relative to control; format: toxicity, cell-based; conditions: read-out: Activity
[6] = Cmax in Kunming mouse at 10 mg/kg, iv measured upto 24 hrs by LC-MS analysis; format: ADME, organism-based; set-up: dose 10 mg/kg, time < 24 hrs, route iv; conditions: in vivo
[7] = MRT (0 to t) in Kunming mouse at 10 mg/kg, iv measured upto 24 hrs by LC-MS analysis; format: ADME, organism-based; conditions: in vivo
[8] = test system: Acinetobacter baumannii; test: Antibiofilm activity against Acinetobacter baumannii assessed as increase in biofilm eradication incubated for 24 hrs by crystal violet staining based analysis; format: functional, organism-based
[9] = test system: Acinetobacter baumannii; test: Antibacterial activity against Acinetobacter baumannii assessed as bacterial growth inhibition incubated for 24 hrs by broth microdilution method; format: functional
[10] = test system: Calf thymus DNA; test: Binding affinity to calf thymus DNA incubated for 5 mins by DAPI displacement assay; format: nucleic-acid assay; conditions: Bos taurus
[11] = test system: Acinetobacter baumannii; test: Antibacterial activity against Acinetobacter baumannii infected in mouse assessed as log reduction in viable bacterial count at 30 mg/kg measured for 12 hrs; format: functional
[12] = test system: Cell membrane; test: Induction of inner membrane damage in Acinetobacter baumannii at 1 to 8 times MIC incubated for 30 mins by fluorescence based assay
[13] = AUC (0 to infinity) in Kunming mouse at 10 mg/kg, iv measured upto 24 hrs by LC-MS analysis; format: ADME, organism-based; set-up: dose 10 mg/kg, time < 24 hrs, route iv; conditions: in vivo
[14] = test system: Pseudomonas aeruginosa; test: Antibacterial activity against Pseudomonas aeruginosa ATCC 27853 assessed as bacterial growth inhibition incubated for 24 hrs by broth microdilution method; format: functional
[15] = test system: Calf thymus DNA; test: Binding affinity to calf thymus DNA assessed as compound-DNA complex formation by absorbance based assay; format: nucleic-acid assay; conditions: Bos taurus
[16] = Half life in Kunming mouse at 10 mg/kg, iv measured upto 24 hrs by LC-MS analysis; format: ADME, organism-based; conditions: in vivo
[17] = Half life in Kunming mouse at 10 mg/kg, po measured upto 24 hrs by LC-MS analysis; format: ADME, organism-based; conditions: in vivo
[18] = Volume of distribution at steady state in Kunming mouse at 10 mg/kg, iv measured upto 24 hrs by LC-MS analysis; format: ADME, organism-based; conditions: in vivo, read-out: Vdss
[19] = MRT (0 to infinity) in Kunming mouse at 10 mg/kg, iv measured upto 24 hrs by LC-MS analysis; format: ADME, organism-based; conditions: in vivo
[20] = test system: Staphylococcus aureus; test: Antibacterial activity against methicillin-resistant Staphylococcus aureus assessed as bacterial growth inhibition incubated for 24 hrs by broth microdilution method; format: functional
[21] = test system: Pseudomonas aeruginosa; test: Antibacterial activity against Pseudomonas aeruginosa assessed as bacterial growth inhibition incubated for 24 hrs by broth microdilution method; format: functional
[22] = Hemolytic activity in human RBC assessed as cell viability upto 256 ug/ml measured for 1 to 8 hrs by absorbance based assay relative to control; format: toxicity, Erythrocyte; conditions: red blood cells (erythrocytes), time 1-8 hrs, dose < 256 µg/ml, read-out: Activity
[23] = Tmax in Kunming mouse at 10 mg/kg, iv measured upto 24 hrs by LC-MS analysis; format: ADME, organism-based; conditions: in vivo
[24] = test system: Acinetobacter baumannii; test: Antibiofilm activity against Acinetobacter baumannii assessed as biofilm eradication at 0.016 mmol/L incubated for 24 hrs by crystal violet staining based analysis relative to control; format: functional
[25] = AUC (0 to infinity) in Kunming mouse at 10 mg/kg, po measured upto 24 hrs by LC-MS analysis; format: ADME, organism-based; set-up: dose 10 mg/kg, time < 24 hrs, route po; conditions: in vivo
[26] = test system: Escherichia coli; test: Antibacterial activity against Escherichia coli assessed as bacterial growth inhibition incubated for 24 hrs by broth microdilution method; format: functional
[27] = Cytotoxicity against human L02 cells assessed as cell viability upto 0.128 mmol/L measured after 24 hrs by MTT assay relative to control; format: toxicity, cell-based; conditions: up to 0.128 mM, read-out: Activity
[28] = Volume of distribution in Kunming mouse at 10 mg/kg, po measured upto 24 hrs by LC-MS analysis; format: ADME, organism-based; conditions: in vivo
[29] = test system: Calf thymus DNA; test: Binding affinity to calf thymus DNA incubated for 5 mins by acridine orange displacement assay; format: nucleic-acid assay; conditions: Bos taurus
[30] = Hemolytic activity in human RBC at effective concentration measured after 1 hr by absorbance based assay relative to control; format: toxicity, cell-based, Erythrocyte; conditions: red blood cells (erythrocytes), read-out: Activity
[31] = Tmax in Kunming mouse at 10 mg/kg, po measured upto 24 hrs by LC-MS analysis; format: ADME, organism-based; conditions: in vivo
[32] = test system: Staphylococcus aureus; test: Antibacterial activity against Staphylococcus aureus ATCC 29213 assessed as bacterial growth inhibition incubated for 24 hrs by broth microdilution method; format: functional
[33] = test system: Staphylococcus aureus; test: Antibacterial activity against Staphylococcus aureus ATCC 25923 assessed as bacterial growth inhibition incubated for 24 hrs by broth microdilution method; format: functional
[34] = test system: Acinetobacter baumannii; test: Antibacterial activity against Acinetobacter baumannii assessed as reduction in metabolic activity incubated for 6 hrs by alamar blue staining based assay; format: functional, organism-based
[35] = AUMC (0 to t) in Kunming mouse at 10 mg/kg, po measured upto 24 hrs by LC-MS analysis; format: ADME, organism-based; conditions: in vivo
[36] = AUC (0 to t) in Kunming mouse at 10 mg/kg, po measured upto 24 hrs by LC-MS analysis; format: ADME, organism-based; set-up: time < 24 hrs, dose 10 mg/kg, route po; conditions: in vivo
[37] = Clearance in Kunming mouse at 10 mg/kg, iv measured upto 24 hrs by LC-MS analysis; format: ADME, organism-based; conditions: in vivo
[38] = test system: Klebsiella pneumoniae; test: Antibacterial activity against Klebsiella pneumoniae assessed as bacterial growth inhibition incubated for 24 hrs by broth microdilution method; format: functional
[39] = Clearance in Kunming mouse at 10 mg/kg, po measured upto 24 hrs by LC-MS analysis; format: ADME, organism-based; conditions: in vivo
[40] = test system: Erythrocyte; test: Hemolytic activity in human RBC at greater than MIC measured for 2 to 4 hrs by absorbance based assay; format: toxicity, cell-based; conditions: time 2-4 hrs
[41] = MRT (0 to t) in Kunming mouse at 10 mg/kg, po measured upto 24 hrs by LC-MS analysis; format: ADME, organism-based; conditions: in vivo
[42] = test system: Calf thymus DNA; test: Binding affinity to calf thymus DNA assessed as binding constant, K by absorbance based assay; format: nucleic-acid assay; conditions: Bos taurus
[43] = test system: Cell membrane; test: Induction of outer membrane damage in Acinetobacter baumannii at 1 to 8 times MIC incubated for 30 mins by fluorescence based assay
[44] = AUMC (0 to infinity) in Kunming mouse at 10 mg/kg, po measured upto 24 hrs by LC-MS analysis; format: ADME, organism-based; conditions: in vivo
[45] = test system: Enterococcus faecalis; test: Antibacterial activity against Enterococcus faecalis assessed as bacterial growth inhibition incubated for 24 hrs by broth microdilution method; format: functional
[46] = C0 in Kunming mouse at 10 mg/kg, iv measured upto 24 hrs by LC-MS analysis; format: ADME, organism-based; conditions: in vivo
[47] = test system: Acinetobacter baumannii; test: Antibacterial activity against Acinetobacter baumannii infected in mouse assessed as log reduction in viable bacterial count at 10 mg/kg measured for 12 hrs; format: functional
[48] = test system: Calf thymus DNA; test: Induction of calf thymus DNA cleavage at 0.05 mmol/L incubated for 6 hrs in presence of Cu(NO3)2 by agarose gel electrophoresis method; format: nucleic-acid assay; conditions: Bos taurus

OCCN(CCO)c1nccc(-n2cncn2)n1
AUMC [1]: 8598 hr.hr.ng/ml | F [2]: 35.41% | Activity [3]: inactive | AUC(0-t) at 24 h [4]: 2080 ng·h/mL | viability at 24 h [5]: > 75% | Cmax [6]: 1990 ng/mL | MRT last at 24 h [7]: 2.61 h | Activity [8]: Dose-Dependent Effect | MIC [9]: 2 µM (≈ 0.501 µg/mL) | Activity [10]: Dose-Dependent Effect | log(activity) [11]: 3.5 | Activity [12]: inactive | AUC [13]: 2281 ng·h/mL | MIC [14]: 512 µM (≈ 128 µg/mL) | Activity [15]: Active | half-life [16]: 2.79 h | half-life [17]: 4.39 h | Vd [18]: 2.1 L/kg | MRT inf [19]: 3.98 h | MIC [20]: 1020 µM (≈ 256 µg/mL) | MIC [21]: 1 µM (≈ 0.25 µg/mL) | viability [22]: > 99% | Tmax [23]: 1.98 min | Activity [24]: 39.1% | AUC [25]: 8073 ng·h/mL | MIC [26]: 1020 µM (≈ 256 µg/mL) | viability at 24 h [27]: 85% | Vd [28]: 7.89 L/kg | Activity [29]: inactive | hemolysis at 1 h [30]: < 5% | Tmax [31]: 0.58 h | MIC [32]: 1020 µM (≈ 256 µg/mL) | MIC [33]: 128 µM (≈ 32 µg/mL) | Activity [34]: Dose-Dependent Effect | AUMCt [35]: 31290 hr.hr.ng/ml | AUC(0-t) at 24 h [36]: 7870 ng·h/mL | CL [37]: 8.43 mL/min/kg | MIC [38]: 8 µM (≈ 2 µg/mL) | CL/F [39]: 20.7 mL/min/kg | Activity [40]: Non-Toxic | MRT last at 24 h [41]: 3.97 h | K [42]: 1.7 10^3L/mol | Activity [43]: inactive | AUMC [44]: 37723 hr.hr.ng/ml | MIC [45]: 8 µM (≈ 2 µg/mL) | C0 at 24 h [46]: 2590 ng/mL | log(activity) [47]: 1.6 | Activity [48]: inactive
